From ChEMBL document CHEMBL1158315, “Sclerotiamide: a new member of the paraherquamide class with potent antiinsectan activity from the sclerotia of Aspergillus sclerotiorum” (1996)
Activity calls are given as the source filed them. The calls are words filed in the database; no cut-off is given here.

Columns and labels:
[1] = Cytotoxicity against human NCI60 cells; assay type: functional
Helicoverpa zea [2] = experiment: Insecticidal activity against corn ear worm first instar larvae assessed as blackened in dead larvae at 200 ppm administered with standard test diet; assay type: functional, organism-based
Helicoverpa zea [3] = experiment: Insecticidal activity against corn ear worm first instar larvae assessed as laterally shriveled in dead larvae at 200 ppm administered with standard test diet; assay type: functional, organism-based
Helicoverpa zea [4] = experiment: Insecticidal activity against corn ear worm first instar larvae assessed as cuticle/exoskeleton rupture in dead larvae at 200 ppm administered with standard test diet; assay type: functional, organism-based
Helicoverpa zea [5] = experiment: Insecticidal activity against corn ear worm first instar larvae assessed as mortality at 200 ppm administered with standard test diet; assay type: functional
Helicoverpa zea [6] = experiment: Insecticidal activity against corn ear worm first instar larvae assessed as reduction in growth at 200 ppm administered with standard test diet relative to control; assay type: functional; set-up: scale not given: the % may be the effect or the level left
Helicoverpa zea [7] = experiment: Insecticidal activity against corn ear worm first instar larvae assessed as bloating of area just prior to rear body in surviving larvae at 200 ppm administered with standard test diet; assay type: functional, organism-based
Carpophilus = experiment: Antifeedant activity against Carpophilus hemipterus adult assessed as reduction in feeding rate at 100 ppm; assay type: functional

CC1(C)C=Cc2c(ccc3c2NC(=O)[C@@]32[C@H](O)[C@@]34NC(=O)[C@]5(CCCN5C3=O)C[C@H]4C2(C)C)O1 [SCLEROTIAMIDE]
Activity [1]: 44% | Activity (Helicoverpa zea [2]): Active | Activity (Helicoverpa zea [3]): Active | Activity (Helicoverpa zea [4]): Active | Activity (Helicoverpa zea [5]): 46% | Activity (Helicoverpa zea [6]): 98% | Activity (Helicoverpa zea [7]): Active | GI50 (Carpophilus): > 25 µg/mL
